# According to patent US11814364B2, “Pyridine N-oxide derivatives useful as factor XIa inhibitors” (Janssen Pharmaceutica NV, priority 2021, dated 2023):
# Biological target: human plasma kallikrein (Homo sapiens, UniProt P03952)
# Test: Kallikrein inhibition FLINT assay with quenched AMC peptide substrate Z-Gly-Pro-Arg-AMC (end point EP or kinetic KIN reads)
# Format: biochemical
# Details: kinetic reads at 5 min intervals over 30 min; read-out: Kallikrein (KIN) IC50
# Summary of the method: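 Enzyme and compound were preincubated 30 min before adding 50 μM AMC substrate in pH 7.5 Tris/NaCl/CaCl2/BSA/CHAPS buffer. AMC release was read at 30 min endpoint or every 5 min.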
# human plasma kallikrein, sequence (P03952 391-638 limits assumed): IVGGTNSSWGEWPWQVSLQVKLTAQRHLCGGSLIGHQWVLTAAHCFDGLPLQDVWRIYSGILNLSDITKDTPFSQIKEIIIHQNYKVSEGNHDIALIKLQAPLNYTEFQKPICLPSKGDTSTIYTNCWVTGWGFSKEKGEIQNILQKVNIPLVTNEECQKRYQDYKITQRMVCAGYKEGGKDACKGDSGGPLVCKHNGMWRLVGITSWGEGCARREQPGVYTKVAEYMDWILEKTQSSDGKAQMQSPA
# human plasma kallikrein, sequence (P03952 20-390 partner limits assumed): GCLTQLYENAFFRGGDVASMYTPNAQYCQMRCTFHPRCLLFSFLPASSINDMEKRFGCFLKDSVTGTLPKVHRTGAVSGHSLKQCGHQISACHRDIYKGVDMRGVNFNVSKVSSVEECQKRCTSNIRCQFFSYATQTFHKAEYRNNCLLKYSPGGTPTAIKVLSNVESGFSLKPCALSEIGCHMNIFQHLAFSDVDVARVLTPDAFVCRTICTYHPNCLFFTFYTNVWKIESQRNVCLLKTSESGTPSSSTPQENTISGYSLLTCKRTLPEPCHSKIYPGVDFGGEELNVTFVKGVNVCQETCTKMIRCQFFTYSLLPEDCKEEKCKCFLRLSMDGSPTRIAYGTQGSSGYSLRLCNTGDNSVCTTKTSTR
row,IC50,Compound
1,4.1 nM,COc1cc(C(CC2CC2)n2cc(-c3ccc(N)nc3F)cn2)[n+]([O-])cc1-c1c(-n2cnnn2)ccc(Cl)c1F (stereo not drawn) [Example P85]
2,8.4 nM,Cn1cc(C[C@H](c2ccc(-c3c(-n4cnnn4)ccc(Cl)c3F)c[n+]2[O-])n2cc(-c3ccnc(C(F)(F)F)c3)cn2)nn1 [Example P736]
3,249 nM,"NC(=O)c1ccc(-c2cnn(C(Cc3nccs3)c3ccc(-c4c(-n5cc(C(F)(F)F)nn5)ccc(Cl)c4F)c[n+]3[O-])c2)cc1F (single isomer, unassigned) [Example P942]"
4,1.4 nM,"[O-][n+]1cc(-c2c(-n3cnnn3)ccc(Cl)c2F)ccc1C(Cc1ccc(F)cc1)n1cc(-c2ccncc2)cn1 (single isomer, unassigned) [Example P235]"
5,11.6 nM,O=C(O)c1ccc(-c2cnn([C@H](CCOC(F)F)c3ccc(-c4c(-n5cc(C(F)(F)F)nn5)ccc(Cl)c4F)c[n+]3[O-])c2)cc1 [Example P858]
6,11.8 nM,[O-][n+]1cc(-c2c(-n3cnnn3)ccc(Cl)c2F)ccc1[C@@H](CCOC(F)F)n1cc(-c2cnnn2C(F)F)cn1 [Example P676]
7,397 nM,"NC(=O)c1ccc(-c2cnn(C(CN3CCCC3=O)c3ccc(-c4c(-n5cc(C(F)(F)F)nn5)ccc(Cl)c4F)c[n+]3[O-])c2)cc1F (single isomer, unassigned) [Example P936]"
8,5.8 nM,COc1cc(C(CC2CC2C(N)=O)n2cc(-c3ccc(N)nc3C)cn2)[n+]([O-])cc1-c1c(-n2cnnn2)ccc(Cl)c1F (stereo not drawn) [Example P247]
9,320 nM,"NC(=O)C1CC1CC(c1ccc(-c2c(-n3cnnn3)ccc(Cl)c2F)c[n+]1[O-])n1cc(-c2ccc(N)nc2F)cn1 (single isomer, unassigned) [Example P341]"
10,834 nM,"NC(=O)c1ccc(-c2cnn(C(CC3CC3)c3ccc(-c4c(-n5cnnn5)ccc(Cl)c4F)c[n+]3[O-])c2)cc1F (single isomer, unassigned) [Example P946]"
11,77.1 nM,"Nc1ccc(-c2cnn(C(Cn3cc(F)cn3)c3ccc(-c4c(-n5cnnn5)ccc(Cl)c4F)c[n+]3[O-])c2)c(F)n1 (single isomer, unassigned) [Example P417]"
12,826 nM,COC(=O)N1CCC(c2cnn(C(CC3CC3)c3ccc(-c4c(-n5cnnn5)ccc(Cl)c4F)c[n+]3[O-])c2)CC1 (stereo not drawn) [Example P167]
13,16.3 nM,"COc1cc(C(CC2CC2)n2cc(-c3ccnn3C)cn2)[n+]([O-])cc1-c1c(-n2cnnn2)ccc(Cl)c1F (single isomer, unassigned) [Example P490]"
14,249 nM,COc1cnc(F)c(-c2cnn(C(CC3CC3)c3ccc(-c4c(-n5cnnn5)ccc(Cl)c4F)c[n+]3[O-])c2)c1 (stereo not drawn) [Example P75]
15,260 nM,COC(=O)Nc1ccc(-c2cnn(C(CC3CCC(C)(C)CC3)c3ccc(-c4c(-n5cnnn5)ccc(Cl)c4F)c[n+]3[O-])c2)cc1 (stereo not drawn) [Example P122]
16,13.9 nM,[O-][n+]1cc(-c2c(-n3cnnn3)ccc(Cl)c2F)ccc1C(Cn1cccn1)n1cc(-c2ccnc(C(F)F)c2)cn1 (stereo not drawn) [Example P318]
17,86.3 nM,Cn1ncnc1-c1cnn([C@H](Cc2ccn(C(F)F)n2)c2ccc(-c3c(-n4cc(C(F)(F)F)nn4)ccc(Cl)c3F)c[n+]2[O-])c1 [Example P816]
18,582 nM,[O-][n+]1cc(-c2c(-n3cnnn3)ccc(Cl)c2F)ccc1C(Cc1ccc(F)cc1)n1cc(-c2nnn(C(F)F)c2Cl)cn1 (stereo not drawn) [Example P610]
19,549 nM,"[2H]C([2H])([2H])OC([2H])([2H])CC(c1ccc(-c2c(-n3cc(C(F)(F)F)nn3)ccc(Cl)c2F)c[n+]1[O-])n1cc(-c2ncnn2C)cn1 (single isomer, unassigned) [Example P864]"

row,IC50,Compound
1,70.4 nM,"NC(=O)c1ccc(-c2cnn(C(Cc3ccn(C(F)F)n3)c3ccc(-c4c(-n5cc(C(F)(F)F)nn5)ccc(Cl)c4F)c[n+]3[O-])c2)cc1 (single isomer, unassigned) [Example P907]"
2,185 nM,COCc1ccnn1CC(c1ccc(-c2c(-n3cnnn3)ccc(Cl)c2F)c[n+]1[O-])n1cc(-c2ccnc(C(F)(F)F)c2)cn1 (stereo not drawn) [Example P464]
3,12 nM,"O=C(c1ccn(CC(c2ccc(-c3c(-n4cnnn4)ccc(Cl)c3F)c[n+]2[O-])n2cc(-c3ccnc(C(F)(F)F)c3)cn2)n1)N1CCCCC1 (single isomer, unassigned) [Example P449]"
4,42.3 nM,Cn1nncc1-c1cnn([C@H](Cc2ccc(C(F)(F)F)nc2)c2ccc(-c3c(-n4cc(Cl)nn4)ccc(Cl)c3F)c[n+]2[O-])c1 [Example P772]
5,16 nM,"O=C(c1cnn(CC(c2ccc(-c3c(-n4cnnn4)ccc(Cl)c3F)c[n+]2[O-])n2cc(-c3ccnc(C(F)(F)F)c3)cn2)c1)N1CCCCC1 (single isomer, unassigned) [Example P411]"
6,544 nM,"NC(=O)c1ccc(-c2cnn(C(Cc3ccn(C(F)F)n3)c3ccc(-c4c(OC(F)F)ccc(Cl)c4F)c[n+]3[O-])c2)cc1F (single isomer, unassigned) [Example Q72]"
7,23.8 nM,Cn1nnc(F)c1-c1cnn(C(Cc2ccn(C(F)F)n2)c2ccc(-c3c(-n4cc(Cl)nn4)ccc(Cl)c3F)c[n+]2[O-])c1 (stereo not drawn) [Example P797]
8,152 nM,CN(CC(c1ccc(-c2c(-n3cnnn3)ccc(Cl)c2F)c[n+]1[O-])n1cc(-c2cc[n+]([O-])cc2)cn1)C(=O)Cc1ccccc1 (stereo not drawn) [Example P345]
9,7.7 nM,[O-][n+]1cc(-c2c(-n3cnnn3)ccc(Cl)c2F)ccc1[C@@H](Cn1ccc(OC(F)F)n1)n1cc(-c2ccnc(C(F)(F)F)c2)cn1 [Example P533]
10,316 nM,CC(C)(C)c1cnn(CC(c2ccc(-c3c(-n4cc(C(F)(F)F)nn4)ccc(Cl)c3F)c[n+]2[O-])n2cc(-c3ccc(C(N)=O)c(F)c3)cn2)c1 (stereo not drawn) [Example P951]
11,316 nM,COCCC(c1ccc(-c2c(-n3cc(Cl)nn3)ccc(Cl)c2F)c[n+]1[O-])n1cc(-c2c(Cl)nnn2C)cn1 (stereo not drawn) [Example P639]
12,27.6 nM,"[O-][n+]1ccc(-c2cnn(C(Cn3cc(F)cn3)c3ccc(-c4c(-n5cnnn5)ccc(Cl)c4F)c[n+]3[O-])c2)cc1C(F)F (single isomer, unassigned) [Example P406]"
13,55.2 nM,COc1cc(C(CC2CC2)n2cc(-c3ccc(N)nc3F)cn2)[n+]([O-])cc1-c1c(-c2cnco2)ccc(Cl)c1F (stereo not drawn) [Example P182]
14,30.1 nM,O=C1CCCN1CC(c1ccc(-c2c(-n3cnnn3)ccc(Cl)c2F)c[n+]1[O-])n1cc(-c2cc[n+]([O-])c(C(F)F)c2)cn1 (stereo not drawn) [Example P365]
15,10.2 nM,NC(=O)c1ccc(-c2cnn([C@H](CCOC(F)F)c3ccc(-c4c(-n5cc(C(F)(F)F)nn5)ccc(Cl)c4F)c[n+]3[O-])c2)cc1F [Example P860]
16,635 nM,O=C(O)c1ccc(-c2cnn(C(CC3CC3C(=O)N3CCCC3)c3ccc(-c4cc(Cl)ccc4-n4cnnn4)c[n+]3[O-])c2)cc1 (stereo not drawn) [Example P106]
17,10.4 nM,COc1cc(C(Cc2ccccc2)n2cc(-c3ccc(C(=O)O)cc3)cn2)[n+]([O-])cc1-c1c(OCC(F)(F)F)ccc(Cl)c1F (stereo not drawn) [Example Q6]
18,64.9 nM,[O-][n+]1cc(-c2c(-n3cnnn3)ccc(Cl)c2F)ccc1[C@@H](Cc1ccc(C(F)F)cc1)n1cc(-c2cnnn2C(F)F)cn1 [Example P731]
19,788 nM,"NC(=O)c1scc(-c2cnn(C(CC3CC3)c3ccc(-c4c(-n5cnnn5)ccc(Cl)c4F)c[n+]3[O-])c2)c1F (single isomer, unassigned) [Example P954]"

row,Compound,IC50
1,O=c1[nH]c(-c2ccc(-c3cnn(C(CCOC(F)F)c4ccc(-c5c(-n6cc(C(F)(F)F)nn6)ccc(Cl)c5F)c[n+]4[O-])c3)cc2)no1 (stereo not drawn) [Example P903],11.5 nM
